In the SangsterLogP compilation:
Square brackets hold non-standard residues; d marks the D form. Peptide text beside a SMILES is read from it. NMeF = CN[CH](Cc1ccccc1)C(=O)O

Assays:
[1] = method code SF, from DOI: 10.1021/jm00169a014, PMID: 2362268; settings: pH 7.4
[2] = method code SF-AS, from DOI: 10.1016/j.ejmech.2009.02.028, PMID: 19321234
[3] = method code SF, from Moerlein, M.; Dischino, D.; Raymond, N.; Weitl, L.; Welch, J. (1982). Factors affecting the cerebral uptake of gallium complexes. J Labelled Comp Radiopharm, 19(11-12)1421-1422.; settings: pH 7.0
[4] = method code SF, from DOI: 10.1016/0006-2952(92)90292-q, PMID: 1371213; settings: pH 7.4
[5] = not given; remark: listed apart in the source
[6] = method code SF, from DOI: 10.1021/jm00088a010, PMID: 1350310
[7] = method code SF-HPLC, from DOI: 10.1002/jccs.199500138
[8] = method code SF-AS, from DOI: 10.1016/s0960-894x(99)00527-2, PMID: 10571171; settings: pH 7.0
[9] = method code SF-FL, from DOI: 10.1021/acs.jmedchem.5b00420, PMID: 26263187
[10] = method code SF-RC, from DOI: 10.1023/a:1015867608405, PMID: 1614980; settings: pH 7.4
[11] = not given; remark: listed apart in the source
[12] = not given; remark: listed apart in the source
[13] = not given; remark: listed apart in the source
[14] = method code SF-HPLC, from DOI: 10.1248/cpb.38.1906, PMID: 2268893; settings: pH 6.9
[15] = method code SF-AS, from DOI: 10.1016/j.ejmech.2010.02.047, PMID: 20227799; settings: pH 7.4
[16] = method code SF-AS, from DOI: 10.1021/ja00198a050
[17] = method code SF-AS, from Zhang, L.; Fu, G.; Wan, Y. (2014). Determination of verbascoside and its oil-water partition coefficient by ultraviolet spectrophotometry. Shipin Anquan ZhiliangJjiance Xuebao, 5(2)528-532.
[18] = method code SF-HPLC, from DOI: 10.1021/js9504200, PMID: 8742941; settings: pH 7.4
[19] = method code SF-AS, from DOI: 10.1021/jm00371a014, PMID: 6716401; settings: pH 7.4
[20] = not given; remark: listed apart in the source
[21] = method code SF, from DOI: 10.1021/jm00262a020, PMID: 4716184
[22] = not given; remark: listed apart in the source
[23] = method code SF, from DOI: 10.1021/jm00079a001, PMID: 1732531; settings: pH 7.4
[24] = pH 6.5
[25] = not given; remark: listed apart in the source
[26] = method code SF-RC, from DOI: 10.1021/jm00392a008, PMID: 3625705
[27] = method code SF-AS, from DOI: 10.1111/j.1476-5381.1987.tb08980.x, PMID: 3036289; settings: pH 7.4
[28] = method code SF-RC, from DOI: 10.1016/j.nucmedbio.2016.01.003, PMID: 27067043; settings: pH 7.4
[29] = pH 6.5; remark: listed apart in the source
[30] = not given; remark: listed apart in the source
[31] = not given; remark: listed apart in the source
[32] = method code SF-AS, from DOI: 10.1016/s0026-895x(25)13330-0, PMID: 3162758; settings: pH 4.5
[33] = method code SF-HPLC, from DOI: 10.1016/0378-5173(91)90200-8; settings: pH 7.4

Compound: C=C1[C@@H](C)[C@H]2[C@H](Cc3ccccc3)NC(=O)[C@]23OC(=O)/C=C\[C@H](O)CCC[C@@H](C)C/C=C/[C@H]3[C@@H]1O
- logD [1]: 3.37

Compound: Nc1cccc(CN2C(=O)N(c3cccc(C(=O)Nc4cnccn4)c3)C(Cc3ccccc3)C(O)C(O)C2Cc2ccccc2)c1 (centres undefined)
- logP: 3.77

Compound: CCCCCCCCCCCCCC(=O)NC(C(=O)Nc1ccn(C2OC(CO)C(O)C2O)c(=O)n1)c1ccc(O)cc1 (centres undefined)
- logP [2]: 0.9

Compound: CCCCCCN(CCCCN(CCCN(CCCCCC)C(=O)c1cccc(O)c1O)C(=O)c1cccc(O)c1O)C(=O)c1cccc(O)c1O
- logD [3]: -1.52

Compound: CN(CC(=O)N[C@@H]1CC[C@@]2(O)[C@H]3Cc4ccc(O)c5c4[C@@]2(CCN3CC2CC2)[C@H]1O5)c1ccc([N+](=O)[O-])c2nonc12
- logD [4]: 1

Compound: CC(C)Cc1ccc(C(Nc2cccc(C(=O)c3cn(CCCC(=O)O)c4ccccc34)c2)c2ccc(CC(C)C)cc2)cc1
- logP [5]: 3

Compound: O=C(COc1ccc(OCCNCC(O)COc2ccccc2)cc1)N1CCc2ccccc2C1 (centres undefined)
- logP [6]: 3.6

Compound: CC(=O)O[C@@H]1CC[C@]2(C)C3=CC[C@]4(C)[C@@H]([C@H](C)CC/C=C(\C)C(=O)O)C[C@@H](OC(C)=O)[C@@]4(C)C3=CC[C@H]2C1(C)C
- logP [7]: 2.74

Compound: O=C(NCCCC(CO)(CCCNC(=O)c1ccc2cccnc2c1O)CCCNC(=O)c1ccc2cccnc2c1O)c1ccc2cccnc2c1O
- logD [8]: 1.2

Compound: COc1cccc2c1C(=O)c1c(O)c3c(c(O)c1C2=O)CC(O)(C(=O)CO)CC3OC1CC(NC(=O)C2CCC(CN3C(=O)CC(SCCN)C3=O)CC2)C(O)C(C)O1 (centres undefined)
- logP [9]: -0.02

Compound: CC(=O)NC(Cc1ccccc1)C(=O)N(C)C(Cc1ccccc1)C(=O)N(C)C(Cc1ccccc1)C(N)=O (centres undefined) (Ac-Phe-[NMeF]-[NMeF]-NH2; configuration not given here)
- logD [10]: 2.53

Compound: CCOc1ccc(N2CCN(CC(O)CC(Cc3ccccc3)C(=O)NC3c4ccccc4CC3O)C(C(=O)NC(C)(C)C)C2)cn1 (centres undefined)
- logP [11]: 3.62

Compound: CCCCCCCCc1ccc(OCC(=O)Cn2cc(C(C)=O)c3cc(C(=O)O)ccc32)cc1
- logP [12]: 5.8

Compound: COc1cc(C)c(S(=O)(=O)NC(CC(=O)NC2OC(CO)C(O)C(O)C2NC(C)=O)C(=O)NC(Cc2ccc(C(=N)N)cc2)C(=O)N2CCCCC2)c(C)c1C (centres undefined)
- logP [13]: -1.5

Compound: CCOC(=O)OCCC(SC(=O)OCC)=C(C)N(C=O)CC1=C(C(=O)OCOC(=O)C(C)(C)C)N2C(=O)C(NC(=O)C(=NOC)c3csc(N)n3)C2SC1 (centres undefined)
- logD [14]: 3.34

Compound: COc1ccc(-c2oc3cc(C(C)=O)cc(OC)c3c(=O)c2-c2ccc(-c3ccccc3)cc2)cc1OC
- logD [15]: 3.95

Compound: CC(C)(C)c1ccc2c(c1)OCCOCCOCCOCCOCCOCCOCCOCCOCCO2
- logP [16]: 1.69

Compound: C[C@@H]1O[C@@H](OC2[C@@H](O)C(OCCc3ccc(O)c(O)c3)OC(CO)[C@H]2OC(=O)/C=C/c2ccc(O)c(O)c2)[C@H](O)C(O)C1O (some centres undefined)
- logP [17]: -0.57

Compound: O=C(OCCCCCC1CCSS1)c1cc(=O)c2c(OCC(O)COc3cccc4oc(C(=O)OCCCCCC5CCSS5)cc(=O)c34)cccc2o1 (centres undefined)
- logD [18]: 2.87

Compound: COc1cccc2c1C(=O)c1c(O)c3c(c(O)c1C2=O)CC(O)(C(C)=O)CC3OC1CC(N2CCOCC2C#N)C(O)C(C)O1 (centres undefined)
- logD [19]: 2.59

Compound: CC(C)C[C@H](NC(=O)Cc1ccc(C(=O)O)c(OCCF)c1)c1ccccc1N1CCCCC1
- logP [20]: 2.39

Compound: CC[C@@H](C(=O)[C@@H](C)[C@@H](O)[C@H](C)CCc1ccc(C)c(O)c1C(=O)O)[C@H]1O[C@](CC)([C@H]2CC[C@](O)(CC)[C@H](C)O2)C[C@@H]1C
- logP [21]: 2.85

Compound: Cc1c(O)cccc1C(=O)N[C@@H](CSc1ccccc1)[C@H](O)CN1C[C@H]2CCCC[C@H]2C[C@H]1C(=O)NC(C)(C)C
- logP [22]: 4

Compound: C=CC[C@H](NC(=O)[C@@H](Cc1ccccc1)NS(=O)(=O)N1CCN(C)CC1)C(=O)NC(CC1CCCCC1)C(=O)C(F)(F)C(=O)NCCN1CCOCC1 (some centres undefined)
- logD [23]: 2.73

Compound: CCN1CC(C(O)C(CC2CCCCC2)NC(=O)C(Cc2cc[nH]n2)NC(=O)C(CC(=O)N2CCOCC2)Cc2ccccc2)OC1=O (centres undefined)
- logD [24]: 2.52

Compound: Cc1ccccc1NC(=O)Nc1ccc(CC(=O)N[C@@H](CCCCNC(=O)/C=C/c2cccnc2)C(=O)N[C@@H](CCCC(=O)O)C(=O)NC2(C(N)=O)CCCCC2)cc1
- logP [25]: 3.26

Compound: CC/C=C\C/C=C\C/C=C\CCCCCCCC(=O)OCC(COC(=O)CCCN)OC(=O)CCCN (centres undefined)
- logP [26]: 0.33

Compound: C[C@@H]1O[C@@H](O[C@H]2C[C@@H](O)[C@]3(CO)[C@H]4[C@H](O)C[C@]5(C)[C@@H]([C@@H]6COC(=O)C6)CC[C@]5(O)[C@@H]4CC[C@]3(O)C2)[C@H](O)[C@H](O)[C@H]1O
- logD [27]: -0.7

Compound: C=CC(=O)NCCCC[C@H](NC(=O)Cc1ccccc1)C(=O)N1CCN(c2cccc(C)n2)CC1
- logD [28]: 2.09

Compound: CCCCC(OC(Cc1ccccc1)C(=O)N1CCC(OCOC)CC1)C(=O)NC(CC1CCCCC1)C(O)CC(C(=O)NCc1nn[nH]n1)C(C)C (centres undefined)
- logD [29]: 2.9

Compound: CCCN(CCC)C(=O)Cc1c(-c2ccc(OC(=O)NCCc3ccc(O)c(O)c3)cc2)nc2c(Cl)cc(Cl)cn12
- logP [30]: 4.79

Compound: COC1C(OC(C)=O)CC(=O)OC(C)CC=CC=CC(O)C(C)CC(CC=O)C1OC1OC(C)C(OC2C[C@@](C)(O)C(OC(=O)CC(C)C)C(C)O2)C(N(C)C)C1O (some centres undefined)
- logP [31]: 2.39

Compound: COc1cc([C@@H]2c3cc4c(cc3[C@@H](O[C@@H]3O[C@@H]5CO[C@@H](c6cccs6)O[C@H]5[C@H](O)[C@H]3O)[C@H]3COC(=O)[C@H]23)OCO4)cc(OC)c1O
- logD [32]: 1.8

Compound: CCC(C(=O)OCc1ccc(COC(=O)C(CC)C(COC(=O)C2CC2)Cc2cncn2C)cc1)C(COC(=O)C1CC1)Cc1cncn1C (centres undefined)
- logD [33]: 4.2
